Reference: patent US8629102B2, “3-hydroxyisothiazole 1-oxide derivatives” (Mochida Pharmaceutical Co., Ltd., priority 2011, dated 2014)

target: T1, GPR40 of human origin (Homo sapiens, UniProt O14842); assay: Agonist action on GPR40 of human origin (intracellular Ca2+ change); format: cell-based; details: CHO cell strain stably expressing GPR40 of human origin; change in Ca2+ concentration, fluorescent calcium indicator
T1 construct: expressed in transfected cells
Procedure: Pharmacological Test Example 1: Agonist Action on GPR40 of Human Origin
A CHO cell strain stably expressing GPR40 of human origin was used to determine the agonist action of a subject compound. This cell strain was seeded in a clear bottom 96 well plate at 4×10^4 cells/100 pt/well. The cell strain iswas cultured in a CO2 incubator overnight using a Ham's F-12 medium containing a 10% fetal bovine serum, 100 U/mL penicillin, 0.1 mg/mL streptomycin, and 400 μg/mL Geneticin. Calcium 4 Assay Kit (Molecular Devices) was used as a fluorescent calcium indicator. One mL of 77 mg/mL probenecid (Invitrogen) was added to 100 mL of a calcium indicator solution to prepare a solution (loading solution) mixed with a 20 mM HEPES-containing Hanks' balanced salt solution (HBSS) in equal proportions. To the cells from which the culture solution is removed, 200 μl of the loading solution was added, and the cells were cultured in a CO2 incubator for 1 hour. The subject compound was diluted with a 20 mM HEPES-containing HBSS and was added to the cells by 50 μL, and the change in the Ca^2+ concentration was measured with an intracellular ion analyzer. The EC50 value of the subject compound was calculated using the dose-response curve of fluorescence intensity variation.

T1 sequence (O14842 whole entry): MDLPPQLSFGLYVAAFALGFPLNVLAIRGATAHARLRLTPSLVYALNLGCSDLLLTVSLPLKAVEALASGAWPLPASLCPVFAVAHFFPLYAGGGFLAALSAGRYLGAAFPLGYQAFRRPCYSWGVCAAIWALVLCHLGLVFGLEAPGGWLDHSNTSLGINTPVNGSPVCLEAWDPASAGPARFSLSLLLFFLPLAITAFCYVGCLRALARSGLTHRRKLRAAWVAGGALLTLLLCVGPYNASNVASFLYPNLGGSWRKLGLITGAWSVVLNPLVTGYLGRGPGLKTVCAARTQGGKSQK

SMILES	EC50 [nM]
[O-][s+]1nc(O)cc1-c1ccc(O[C@@H]2CCc3c(-c4ccc(Cl)cc4F)cccc32)cc1 (stereo partly drawn) [Example 16, 5-(4-(((R)-4-(4-chloro-2-fluorophenyl)-2,3-dihydro-1H-inden-1-yl)oxy)phenyl)-3-hydroxyisothiazole 1-oxide]	300 to 3000
[O-][s+]1nc(O)cc1-c1ccc(O[C@@H]2CCc3c(-c4cccc(F)c4F)cccc32)cc1 (stereo partly drawn) [Example 17, 5-(4-(((R)-4-(2,3-difluorophenyl)-2,3-dihydro-1H-inden-1-yl)oxy)phenyl)-3-hydroxyisothiazole 1-oxide]	< 300
CCOc1cc(Cl)ccc1-c1cccc2c1CC[C@H]2Oc1ccc(-c2cc(O)n[s+]2[O-])cc1 (stereo partly drawn) [Example 18, 5-(4-(((R)-4-(4-chloro-2-ethoxyphenyl)-2,3-dihydro-1H-inden-1-yl)oxy)phenyl)-3-hydroxyisothiazole 1-oxide]	300 to 3000
CCOc1ncccc1-c1cccc2c1CC[C@H]2Oc1ccc(-c2cc(O)n[s+]2[O-])cc1 (stereo partly drawn) [Example 19, 5-(4-(((R)-4-(2-ethoxypyridin-3-yl)-2,3-dihydro-1H-inden-1-yl)oxy)phenyl)-3-hydroxyisothiazole 1-oxide]	< 300
CCc1ccc(-c2cccc3c2CC[C@H]3Oc2ccc(-c3cc(O)n[s+]3[O-])cc2)cc1 (stereo partly drawn) [Example 20, 5-(4-(((R)-4-(4-ethylphenyl)-2,3-dihydro-1H-inden-1-yl)oxy)phenyl)-3-hydroxyisothiazole 1-oxide]	300 to 3000
[O-][s+]1nc(O)cc1-c1ccc(O[C@@H]2CCc3c(-c4ccc(F)cc4)cccc32)cc1 (stereo partly drawn) [Example 21, 5-(4-(((R)-4-(4-fluorophenyl)-2,3-dihydro-1H-inden-1-yl)oxy)phenyl)-3-hydroxyisothiazole 1-oxide]	< 300
CCCc1ccc(-c2cccc3c2CC[C@H]3Oc2ccc(-c3cc(O)n[s+]3[O-])cc2)cc1 (stereo partly drawn) [Example 22, 5-(4-(((R)-4-(4-n-propylphenyl)-2,3-dihydro-1H-inden-1-yl)oxy)phenyl)-3-hydroxyisothiazole 1-oxide]	< 300
COc1ccc(-c2cccc3c2CC[C@H]3Oc2ccc(-c3cc(O)n[s+]3[O-])cc2)cc1 (stereo partly drawn) [Example 23, 5-(4-(((R)-4-(4-methoxyphenyl)-2,3-dihydro-1H-inden-1-yl)oxy)phenyl)-3-hydroxyisothiazole 1-oxide]	< 300
Cc1cccc(-c2cccc3c2CC[C@H]3Oc2ccc(-c3cc(O)n[s+]3[O-])cc2)c1 (stereo partly drawn) [Example 24, 5-(4-(((R)-4-(3-methylphenyl)-2,3-dihydro-1H-inden-1-yl)oxy)phenyl)-3-hydroxyisothiazole 1-oxide]	< 300
C=Cc1ccc(-c2cccc3c2CC[C@H]3Oc2ccc(-c3cc(O)n[s+]3[O-])cc2)cc1 (stereo partly drawn) [Example 25, 5-(4-(((R)-4-(4-vinylphenyl)-2,3-dihydro-1H-inden-1-yl)oxy)phenyl)-3-hydroxyisothiazole 1-oxide]	300 to 3000
Cc1ccccc1-c1cccc2c1CC[C@H]2Oc1ccc(-c2cc(O)n[s+]2[O-])cc1 (stereo partly drawn) [Example 27, 5-(4-(((R)-4-(2-methylphenyl)-2,3-dihydro-1H-inden-1-yl)oxy)phenyl)-3-hydroxyisothiazole 1-oxide]	< 300
CC(C)Cc1ccc(-c2cccc3c2CC[C@H]3Oc2ccc(-c3cc(O)n[s+]3[O-])cc2)cc1 (stereo partly drawn) [Example 28, 5-(4-(((R)-4-(4-isobutylphenyl)-2,3-dihydro-1H-inden-1-yl)oxy)phenyl)-3-hydroxyisothiazole 1-oxide]	< 300
[O-][s+]1nc(O)cc1-c1ccc(O[C@@H]2CCc3c(-c4cccc(F)c4)cccc32)cc1 (stereo partly drawn) [Example 29, 5-(4-(((R)-4-(3-fluorophenyl)-2,3-dihydro-1H-inden-1-yl)oxy)phenyl)-3-hydroxyisothiazole 1-oxide]	< 300
COc1cccc(-c2cccc3c2CC[C@H]3Oc2ccc(-c3cc(O)n[s+]3[O-])cc2)c1 (stereo partly drawn) [Example 30, 5-(4-(((R)-4-(3-methoxyphenyl)-2,3-dihydro-1H-inden-1-yl)oxy)phenyl)-3-hydroxyisothiazole 1-oxide]	< 300
